Molecules are shown by their SMILES.

Assay [1] in a line: Antagonist activity at AR in bicalutamide-resistant human LNCAP cells assessed as effect on cell proliferation after 6 days.
The nature of assay [2]: Antagonist activity at AR in human LNCAP cells assessed as effect on cell proliferation after 6 days.

As to `CC1(C)C(=O)N(c2ccc(C#N)c(C(F)(F)F)c2)C(=S)N1CCS(N)(=O)=O` [2-[3-(4-Cyano-3-trifluoromethylphenyl)-5,5-dimethyl-4-oxo-2-thioxoimidazolidin-1-yl]ethanesulfonamide], the IC50 in assay [1] worked out at 0.079 µM.
Regarding `CC1(C)C(=O)N(c2ccc(C#N)c(Cl)c2)C(=S)N1CCCS(N)(=O)=O` [3-[3-(3-Chloro-4-cyanophenyl)-5,5-dimethyl-4-oxo-2-thioxoimidazolidin-1-yl]propane-1-sulfonamide], the IC50 worked out at 0.41 µM in assay [2] and 0.012 µM in assay [1].
As to `Cc1c(N2C(=O)C(C)(C)N(CCCS(N)(=O)=O)C2=S)ccc(C#N)c1C(F)(F)F` [3-[3-(4-Cyano-2-methyl-3-trifluoromethylphenyl)-5,5-dimethyl-4-oxo-2-thioxoimidazolidin-1-yl]propane-1-sulfonamide], the IC50 in assay [2] came to 1.1 µM.
On to `Cc1cc(N2C(=O)C(C)(C)N(CCCS(N)(=O)=O)C2=S)ccc1C#N` [3-[3-(4-Cyano-3-methylphenyl)-5,5-dimethyl-4-oxo-2-thioxoimidazolidin-1-yl]propane-1-sulfonamide], for which the 50% inhibitory concentration (IC50) in assay [2] was 0.3 µM; in assay [1], 0.051 µM.
Regarding `CC1(C)C(=O)N(c2ccc(C#N)c(C(F)(F)F)c2)C(=S)N1CCCS(N)(=O)=O` [3-[3-(4-Cyano-3-trifluoromethylphenyl)-5,5-dimethyl-4-oxo-2-thioxoimidazolidin-1-yl]propane-1-sulfonamide], the IC50 in assay [2] stood at 0.16 µM; in assay [1] it was 0.018 µM.
On to `CN(C)S(=O)(=O)CCCN1C(=S)N(c2ccc(C#N)c(C(F)(F)F)c2)C(=O)C1(C)C` [3-[3-(4-Cyano-3-trifluoromethylphenyl)-5,5-dimethyl-4-oxo-2-thioxoimidazolidin-1-yl]propane-1-sulfonic aciddimethylamide], for which the IC50 in assay [2] came to 3.7 µM.
On to `CNS(=O)(=O)CCCN1C(=S)N(c2ccc(C#N)c(C(F)(F)F)c2)C(=O)C1(C)C` [3-[3-(4-Cyano-3-trifluoromethylphenyl)-5,5-dimethyl-4-oxo-2-thioxoimidazolidin-1-yl]propane-1-sulfonic acidmethylamide], for which the IC50 in assay [2] was 0.19 µM; in assay [1] it was 0.03 µM.
As for `CC1(C)C(=O)N(c2ccc(C#N)c(C(F)(F)F)c2)C(=S)N1CCCNS(N)(=O)=O` [3-[3-(4-Cyano-3-trifluoromethylphenyl)-5,5-dimethyl-4-oxo-2-thioxoimidazolidin-1-yl]propylsulfamide], the IC50 in assay [2] is 0.78 µM; in assay [1] it was 0.089 µM.
In the same order, the values of `CC1(C)C(=O)N(c2ccc(C#N)c(C(F)(F)F)c2)C(=S)N1CCCNC(N)=O` [3-[3-(4-Cyano-3-trifluoromethylphenyl)-5,5-dimethyl-4-oxo-2-thioxoimidazolidin-1-yl]propylurea] are 1.6 µM and 0.2 µM.
In the same order, the values of `CC1(C)C(=O)N(c2ccc(C#N)c(C(F)(F)F)c2)C(=S)N1CCCCS(N)(=O)=O` [4-[3-(4-Cyano-3-trifluoromethylphenyl)-5,5-dimethyl-4-oxo-2-thioxoimidazolidin-1-yl]butane-1-sulfonamide] are 1.4 µM and 0.11 µM.
In the same order, the values of `CC1(C)C(=O)N(c2ccc(C#N)c(C(F)(F)F)c2)C(=S)N1CCCC(N)=O` [4-[3-(4-Cyano-3-trifluoromethylphenyl)-5,5-dimethyl-4-oxo-2-thioxoimidazolidin-1-yl]butyramide] are 0.4 µM and 0.055 µM.
For the molecule `CC1(C)C(=O)N(c2ccc(C#N)c(C(F)(F)F)c2)C(=S)N1CCCC(=O)O` [4-[3-(4-cyano-3-trifluoromethylphenyl)-5,5-dimethyl-4-oxo-2-thioxoimidazolidin-1-yl]butyric acid], the IC50 in assay [2] is 2 µM; in assay [1], 0.4 µM.

Source of the values: BindingDB's records for doi:10.1016/j.bmc.2010.03.036 (Chugai Pharmaceutical, 2010).
